Experimental findings from ChEMBL document CHEMBL5649166, “RIP3 induces apoptosis independent of pronecrotic kinase activity” (Mol Cell, 2014) are described below.

The target of experiment [1] is Tyrosine-protein kinase Fer (Homo sapiens) (UniProt P16591). Put plainly: Inhibition of human FER using poly[Glu:Tyr] (4:1) as substrate at 1 uM in presence of 32P-ATP by Hotspot assay relative to control; values are per cent of control.
For experiment [2], the target named is T1, G protein-coupled receptor kinase 3 (Homo sapiens) (UniProt P35626).
T1 sequence (whole entry): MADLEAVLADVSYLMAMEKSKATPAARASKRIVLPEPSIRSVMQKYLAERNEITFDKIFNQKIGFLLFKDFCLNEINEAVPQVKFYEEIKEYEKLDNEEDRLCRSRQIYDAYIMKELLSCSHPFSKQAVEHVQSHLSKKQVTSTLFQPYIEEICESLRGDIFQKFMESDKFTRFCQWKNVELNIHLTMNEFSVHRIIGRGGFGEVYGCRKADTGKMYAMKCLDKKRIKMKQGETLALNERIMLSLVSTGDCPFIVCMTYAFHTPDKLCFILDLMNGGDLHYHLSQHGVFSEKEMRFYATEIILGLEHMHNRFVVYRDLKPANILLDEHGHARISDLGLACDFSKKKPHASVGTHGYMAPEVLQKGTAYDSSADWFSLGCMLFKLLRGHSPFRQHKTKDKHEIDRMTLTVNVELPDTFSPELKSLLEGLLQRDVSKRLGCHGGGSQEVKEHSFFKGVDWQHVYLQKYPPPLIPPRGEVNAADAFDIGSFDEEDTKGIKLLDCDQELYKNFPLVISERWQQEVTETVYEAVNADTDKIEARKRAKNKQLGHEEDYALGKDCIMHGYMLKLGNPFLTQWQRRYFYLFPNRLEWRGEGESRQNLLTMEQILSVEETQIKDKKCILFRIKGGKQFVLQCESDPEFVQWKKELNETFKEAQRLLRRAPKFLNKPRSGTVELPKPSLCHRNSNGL
The experiment is described as follows: Inhibition of human GRK3 using casein as substrate at 1 uM in presence of 32P-ATP by Hotspot assay relative to control; values are per cent of control.

Experiment [3] concerns the target T2, Mitogen-activated protein kinase 13 (Homo sapiens) (UniProt O15264).
T2 sequence (whole entry): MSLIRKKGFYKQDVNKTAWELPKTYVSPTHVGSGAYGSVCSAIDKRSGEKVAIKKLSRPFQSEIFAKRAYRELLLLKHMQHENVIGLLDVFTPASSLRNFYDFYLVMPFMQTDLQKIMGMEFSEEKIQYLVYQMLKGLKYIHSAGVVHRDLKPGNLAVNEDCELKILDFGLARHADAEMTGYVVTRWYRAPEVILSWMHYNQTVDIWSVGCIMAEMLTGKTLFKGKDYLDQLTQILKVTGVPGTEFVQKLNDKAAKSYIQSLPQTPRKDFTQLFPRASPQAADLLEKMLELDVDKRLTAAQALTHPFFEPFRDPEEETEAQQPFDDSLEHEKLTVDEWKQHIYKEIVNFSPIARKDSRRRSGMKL
Put plainly: Inhibition of human P38d/MAPK13 using myelin basic protein as substrate at 1 uM in presence of 32P-ATP by Hotspot assay relative to control; values are per cent of control.

Experiment [4] has as its target T3, Tyrosine-protein kinase ITK/TSK (Homo sapiens) (UniProt Q08881).
T3 sequence (whole entry): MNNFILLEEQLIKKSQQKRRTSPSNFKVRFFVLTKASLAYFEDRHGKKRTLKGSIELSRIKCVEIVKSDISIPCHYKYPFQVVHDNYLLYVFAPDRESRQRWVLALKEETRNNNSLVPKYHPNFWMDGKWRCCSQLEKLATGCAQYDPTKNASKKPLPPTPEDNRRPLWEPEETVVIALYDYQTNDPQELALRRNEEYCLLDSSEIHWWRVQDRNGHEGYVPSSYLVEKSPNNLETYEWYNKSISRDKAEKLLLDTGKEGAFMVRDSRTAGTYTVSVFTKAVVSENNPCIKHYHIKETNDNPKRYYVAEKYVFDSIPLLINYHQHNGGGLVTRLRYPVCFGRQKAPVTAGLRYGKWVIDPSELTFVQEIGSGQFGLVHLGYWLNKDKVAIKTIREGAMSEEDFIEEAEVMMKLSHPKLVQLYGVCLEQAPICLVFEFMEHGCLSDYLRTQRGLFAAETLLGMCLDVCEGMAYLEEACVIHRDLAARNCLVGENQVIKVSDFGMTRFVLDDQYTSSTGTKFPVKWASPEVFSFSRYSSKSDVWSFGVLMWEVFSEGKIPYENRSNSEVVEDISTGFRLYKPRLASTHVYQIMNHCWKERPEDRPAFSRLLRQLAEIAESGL
Put plainly: Inhibition of human ITK using myelin basic protein as substrate at 1 uM in presence of 32P-ATP by Hotspot assay relative to control; values are per cent of control.

The target of experiment [5] is T4, Dual specificity protein kinase TTK (Homo sapiens) (UniProt P33981).
T4 sequence (whole entry): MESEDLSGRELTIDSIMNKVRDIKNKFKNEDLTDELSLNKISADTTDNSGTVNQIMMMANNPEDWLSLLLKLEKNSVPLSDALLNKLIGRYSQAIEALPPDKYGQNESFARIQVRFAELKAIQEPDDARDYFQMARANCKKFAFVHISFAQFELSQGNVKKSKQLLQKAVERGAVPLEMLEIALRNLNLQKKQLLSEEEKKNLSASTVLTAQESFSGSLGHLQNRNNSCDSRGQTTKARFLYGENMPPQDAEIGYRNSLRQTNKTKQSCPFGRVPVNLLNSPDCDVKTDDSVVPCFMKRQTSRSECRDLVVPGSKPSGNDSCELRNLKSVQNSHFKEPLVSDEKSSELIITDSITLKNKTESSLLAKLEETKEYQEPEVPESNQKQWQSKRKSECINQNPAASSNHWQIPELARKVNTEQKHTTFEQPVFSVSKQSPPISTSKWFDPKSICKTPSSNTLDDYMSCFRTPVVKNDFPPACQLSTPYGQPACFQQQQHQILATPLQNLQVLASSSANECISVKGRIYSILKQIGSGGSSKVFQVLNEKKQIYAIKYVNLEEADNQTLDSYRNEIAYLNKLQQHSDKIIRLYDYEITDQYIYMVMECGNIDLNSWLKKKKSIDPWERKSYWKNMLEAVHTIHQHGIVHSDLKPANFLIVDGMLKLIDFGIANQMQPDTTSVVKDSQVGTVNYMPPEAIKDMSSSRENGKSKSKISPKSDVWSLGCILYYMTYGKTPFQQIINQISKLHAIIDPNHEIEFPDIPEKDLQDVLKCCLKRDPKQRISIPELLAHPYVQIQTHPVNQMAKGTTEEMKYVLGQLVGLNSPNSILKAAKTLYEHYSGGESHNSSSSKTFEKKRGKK
Put plainly: Inhibition of human TTK using at 1 uM in presence of 32P-ATP by Hotspot assay relative to control; values are per cent of control.

Tyrosine-protein kinase Fer (Homo sapiens), sequence (P16591 whole entry, looked up): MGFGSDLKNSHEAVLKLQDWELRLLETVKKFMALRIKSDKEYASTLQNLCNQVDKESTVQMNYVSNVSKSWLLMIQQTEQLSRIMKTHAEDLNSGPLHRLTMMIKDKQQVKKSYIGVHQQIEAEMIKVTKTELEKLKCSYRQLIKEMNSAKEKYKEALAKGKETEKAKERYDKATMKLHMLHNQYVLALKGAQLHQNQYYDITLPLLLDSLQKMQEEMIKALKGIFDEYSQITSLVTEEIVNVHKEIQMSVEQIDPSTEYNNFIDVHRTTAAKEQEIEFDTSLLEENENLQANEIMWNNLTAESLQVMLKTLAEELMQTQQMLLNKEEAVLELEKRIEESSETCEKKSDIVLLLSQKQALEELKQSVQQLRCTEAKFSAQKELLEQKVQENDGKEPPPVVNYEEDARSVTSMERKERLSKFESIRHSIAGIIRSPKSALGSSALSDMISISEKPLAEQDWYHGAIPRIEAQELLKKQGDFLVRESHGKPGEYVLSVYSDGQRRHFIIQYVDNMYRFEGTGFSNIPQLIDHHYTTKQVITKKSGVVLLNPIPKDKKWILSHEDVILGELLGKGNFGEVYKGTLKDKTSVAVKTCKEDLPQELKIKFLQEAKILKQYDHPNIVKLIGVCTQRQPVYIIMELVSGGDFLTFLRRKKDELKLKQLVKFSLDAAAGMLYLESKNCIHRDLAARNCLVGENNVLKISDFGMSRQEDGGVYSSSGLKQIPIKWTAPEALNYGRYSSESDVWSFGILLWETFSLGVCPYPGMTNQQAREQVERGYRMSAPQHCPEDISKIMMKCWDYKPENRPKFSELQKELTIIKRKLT

On to `CC(C)S(=O)(=O)c1ccc2nccc(Nc3ccc4scnc4c3)c2c1`, for which the residual activity in experiment [1] is 98.4%; in experiment [2], 99.5%; in experiment [3], 94.8%; in experiment [4], 104%; in experiment [5], 100%.
In the same order, the values of `CNC(=O)c1ccc2c(c1)ncn2-c1ccc(CC(=O)OC(C)(C)C)cc1` are 91.6%, 108%, 104%, 99% and 91%.
In the same order, the values of `Cc1cc(-c2cnc(N)c3c(-c4ccc5scnc5c4)csc23)n(C)n1` are 87.9%, 80.9%, 103%, 98.3% and 101%.
